Entries after “also recorded” stand apart in the source; their conditions may differ.

The subject of data set [1] is C57-diet induced obesity mouse model. The data set is described as follows: Intraperitoneal glucose tolerance testing (IP-GTT) in C57-DIO mice. The data set is classed as in vivo. The protocol:
Glucose tolerance testing (IP-GTT) was performed via an IP injection of a 10% glucose solution at […] body weight within a 10 mL/kg body weight volume. Blood glucose was monitored pre and post injection at 15-minute intervals for 60 minutes using a standard glucometer. IP-GTT was chosen over oral GTT to bypass gut hormone signaling (GLP-1) for a more direct assessment of hepatic insulin resistance. IPGTT was performed on animals both prior to and after the 12-day test compound administration period to glean both individual animal responses and cohort averaged responses.

Data set [2] has as its system C57-diet induced obesity (DIO) mouse model. Description: Histological scoring of hepatic steatosis in the C57-DIO mouse model. The format is in vivo. Particulars: C57-DIO mice; for fatty liver phenotype / hepatic steatosis by liver histology (H&E): once-daily IP injection for 12 days, 10 mg/kg body weight. From the text: The C57-diet induced obesity (DIO) mouse model was used in this study as a disease model for fatty liver disease and hepatic insulin resistance (FIG. 4). It was observed that eighty percent of the C57-DIO animals develop the fatty liver phenotype at 20-weeks, which highly correlates with insulin resistance penetrance and poor glycemic control. […] In humans, progressive accumulation of hepatic triglycerides is associated with metabolic syndrome/T2D and leads to impairment of insulin action in the liver. The two guiding phenotypic indicators of test compound efficacy in earlier studies were: histological scoring of hepatic steatosis, and intraperitoneal (IP) glucose tolerance.
Singly housed mice raised on a 60%-fat diet (20-week old males purchased from Sax labs) with extensive fatty liver were treated with the test compound for 12 days via daily intraperitoneal injection (IP). […] In addition, coats of treated animals were drier (FIG. 4B vs. C), consistent with reduction in triglycerides (also observed in the DGAT1 mouse knockout with dry coat).
During initial animal screening, we developed a quantitative histomorphometry platform software using components of the open-source CellProfiler software for automatically quantifying/scoring liver lipid content through lipid droplet detection in entire liver sections. In brief, entire H&E liver slides are scanned at 400× total magnification using an Aperio ScanScope slide scanner. For automated lipid phenotyping, we 1) detect entire pieces of tissue, 2) identify individual lipid droplets based on size and shape and, 3) measure mean droplet size and droplet density per […]. This automated quantitation of liver lipid phenotype, supervised and verified by a trained veterinary pathologist (PI Yi), offers an unbiased and simple method for comparing compound effects. Results from manual scoring of average degree of steatosis in cohorts are; Sham-90%, B127443-27% and are in good agreement with machine-aided scoring results as shown in FIG. 6.

For data set [3], the system named is genes involved in lipid/energy metabolism. Description: Gene chip microarray analysis of sham and drug treated liver. The format is in vivo, mouse. Particulars: treated vs sham liver. From the text: The expression and proteomic studies were implemented with particular interest in lipid/energy metabolism pathways. […] We are also particularly interested in Car3, since this gene represents ˜30% of soluble protein in adipose tissue, goes up in adipocytes (˜2-fold) in response to high fat diet, but goes down in the liver dramatically in response to energetic starvation. Finally, Car3 is negatively regulated by insulin signaling and thus might reflect insulin sensitivity. FGF21 and Car3 are good biomarkers for liver function in response to metabolic changes.

The test system of a further data set is FGF21. The data set is described as follows: FGF21 expression in liver of treated C57-DIO mice (Western blot, qPCR, microarray). The data set is classed as in vivo, mouse. From the text: (§1) The expression and proteomic studies were implemented with particular interest in lipid/energy metabolism pathways.
(In general: A western blot detects proteins with antibodies after separation by electrophoresis.)

For another data set, the system named is CAR3. Description: CAR3 level in liver of treated mice (Western blot, 2D-DiGE). The data set is classed as in vivo, mouse.
Text: as §1

[4] abbreviates: drug treated at 10 mg/kg vs. vehicle.
Setting [5] is: trials on large numbers of mice.

With `O=C(Nc1ccc([N+](=O)[O-])cc1Cl)c1cc(Cl)ccc1O` [Example B-127443, Niclosamide], the “glucose tolerance (IP-GTT), individual animals before and after treatment” value in data set [1] (12-day treatment with 5 mg/kg, Animals 1,3) was “improved glucose tolerance”. Moreover, the “glucose tolerance (IP-GTT)” value in data set [1] (12-day treatment, 10 mg/kg, cohort average (n=6) vs sham, 10 mg/kg) is recorded as “markedly improved; also recorded: marked improvement in glucose tolerance”. Also, the “fatty liver phenotype / hepatic steatosis by liver histology (H&E)” value in data set [2] (10 mg/kg) was “dramatic therapeutic effects; also recorded: reversal of fatty phenotype”; in data set [2] (listed as B127443, 10 mg/kg), “efficacious; also recorded: robust responses”. In addition, the “average degree of steatosis in cohorts, manual scoring” value in data set [2] (Sham 90%) was 27%. In addition, the “expression of genes involved in lipid/energy metabolism (FGF21, Fitm1, Fitm2, CideC, Cyp7A1, chn)” value in data set [3] is on record as “significantly changed the expression of many genes involved in lipid/energy metabolism”. For the same compound, the “FGF21 expression in liver, Western blot” value in the data set on FGF21 (setting [4]) was “stimulation”. Besides, the FGF21 expression result in the data set with FGF21 (setting [5]) is reported as “increases”. Further, in the data set with CAR3 (setting [4]), the “CAR3 in liver, Western blot” value is “significant reduction”. Besides, in the data set with CAR3 (livers of treated mice), the “CAR3 protein level in liver, comparative proteomics (2D-DiGE)” value is on record as “significantly lower levels of CAR3 protein”. Besides, the Car3 expression result with CAR3 (setting [5]) is recorded as “decreasing”.
